Laboratory results reported in ChEMBL document CHEMBL1201862, “PubChem BioAssay data set” (2004).
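Compound exposure: 48 hours, 5 concentrations, 96-well plates. GI50 marks 50% less growth.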 The source made the active and inactive calls. Cut-off read from the data, not from the text of the source: active = GI50 up to about 1.1 µM and inactive = higher.

What was measured:
Experiment in all cases: NCI anticancer screen, dose series, 48 h
ACHN = tested on: ACHN
SK-OV-3 = tested on: SK-OV-3
CAKI-1 = tested on: CAKI-1
EKVX = tested on: EKVX
KM12 = tested on: KM12
NCI-H226 = tested on: NCI-H226
UACC-257 = tested on: UACC-257
UO-31 = tested on: UO-31
NCI-H460 = tested on: NCI-H460
OVCAR-4 = tested on: OVCAR-4
MCF7 = tested on: MCF7
IGROV-1 = tested on: IGROV-1
SNB-75 = tested on: SNB-75
M14 = tested on: M14
MDA-N = tested on: MDA-N
HOP-92 = tested on: HOP-92
SW-620 = tested on: SW-620
CCRF-CEM = tested on: CCRF-CEM
A549 = tested on: A549

SMILES | GI50 (ACHN) | GI50 (SK-OV-3) | GI50 (CAKI-1) | GI50 (EKVX) | GI50 (KM12) | GI50 (NCI-H226) | GI50 (UACC-257) | GI50 (UO-31) | GI50 (NCI-H460) | GI50 (OVCAR-4) | GI50 (MCF7) | GI50 (IGROV-1) | GI50 (SNB-75) | GI50 (M14) | GI50 (MDA-N) | GI50 (HOP-92) | GI50 (SW-620) | GI50 (CCRF-CEM) | GI50 (A549)
Cc1cc(N)ccc1C=O | > 100 µM (inactive) | > 100 µM (inactive) | > 100 µM (inactive) | > 100 µM (inactive) | > 100 µM (inactive) | > 100 µM (inactive) | > 100 µM (inactive) | > 100 µM (inactive) | > 100 µM (inactive) | > 100 µM (inactive) | > 100 µM (inactive) | > 100 µM (inactive) | > 100 µM (inactive) | > 100 µM (inactive) | > 100 µM (inactive) | > 100 µM (inactive) | > 100 µM (inactive) | > 100 µM (inactive) | > 100 µM (inactive)
C=CCSS/C=C/C[S+]([O-])CC=C (centres undefined) [AJOENE] | 51.1 µM (inactive) | 64 µM (inactive) | 26.9 µM (inactive) | > 100 µM (inactive) | 57.8 µM (inactive) | 41.3 µM (inactive) | 50.9 µM (inactive) | 37.8 µM (inactive) | 35.8 µM (inactive) | > 54.8 µM (inactive) | 44.2 µM (inactive) | 43.4 µM (inactive) | 70 µM (inactive) | 20.9 µM (inactive) | 18.8 µM (inactive) | 48.3 µM (inactive) | 7.8 µM (inactive) | 3.44 µM (inactive) | 61 µM (inactive)
O=C1/C(=C/c2ccc(O)cc2)Oc2ccccc21 | > 100 µM (inactive) | > 100 µM (inactive) | > 100 µM (inactive) | > 100 µM (inactive) | 90.6 µM (inactive) | > 100 µM (inactive) | > 100 µM (inactive) | – | > 100 µM (inactive) | 72.6 µM (inactive) | > 100 µM (inactive) | > 100 µM (inactive) | 60.1 µM (inactive) | > 100 µM (inactive) | > 100 µM (inactive) | > 100 µM (inactive) | > 100 µM (inactive) | 32.2 µM (inactive) | > 100 µM (inactive)
CCOC(=O)C(=O)/C(=C\NC(=S)Nc1ccccc1Cl)C(=O)OCC | > 100 µM (inactive) | > 100 µM (inactive) | > 100 µM (inactive) | > 100 µM (inactive) | > 100 µM (inactive) | > 100 µM (inactive) | > 100 µM (inactive) | > 100 µM (inactive) | > 100 µM (inactive) | > 100 µM (inactive) | > 100 µM (inactive) | > 100 µM (inactive) | > 100 µM (inactive) | > 100 µM (inactive) | > 100 µM (inactive) | 3.59 µM (inactive) | > 100 µM (inactive) | > 100 µM (inactive) | > 100 µM (inactive)
C[N+](C)(C)/C=N\c1cccc2nsnc12 | > 100 µM (inactive) | > 100 µM (inactive) | > 100 µM (inactive) | > 100 µM (inactive) | – | > 100 µM (inactive) | > 100 µM (inactive) | > 100 µM (inactive) | – | > 100 µM (inactive) | > 100 µM (inactive) | > 100 µM (inactive) | > 100 µM (inactive) | > 100 µM (inactive) | > 100 µM (inactive) | > 100 µM (inactive) | – | > 100 µM (inactive) | > 100 µM (inactive)
N#Cc1ccccc1-c1nc2c3c(c(N)ccc3n1)C(=O)c1ccccc1-2 | 22.2 µM (inactive) | 24.4 µM (inactive) | 8.3 µM (inactive) | 30.3 µM (inactive) | 11.5 µM (inactive) | 35.2 µM (inactive) | > 100 µM (inactive) | 8.85 µM (inactive) | > 100 µM (inactive) | 71 µM (inactive) | 17.6 µM (inactive) | 8.38 µM (inactive) | 50.2 µM (inactive) | 23.1 µM (inactive) | > 100 µM (inactive) | > 100 µM (inactive) | 31 µM (inactive) | 18.9 µM (inactive) | 71.6 µM (inactive)
CN(C)CCNc1ccc2c(=O)n(CCN(C)C)c(=O)n3c4ccc(N)cc4c(=O)c1c23 | < 0.01 µM (active) | 0.261 µM (active) | 0.115 µM (active) | 0.119 µM (active) | 0.0644 µM (active) | < 0.0215 µM (active) | 0.258 µM (active) | 0.0382 µM (active) | < 0.01 µM (active) | 0.0721 µM (active) | < 0.012 µM (active) | < 0.0124 µM (active) | 0.0782 µM (active) | 0.12 µM (active) | 0.0502 µM (active) | 0.0807 µM (active) | < 0.01 µM (active) | < 0.01 µM (active) | < 0.01 µM (active)
